Test results from US9061981B2, “Diphenyl substituted cyclohexane derivatives, useful as modulators of the estrogen receptors beta” (Acadia Pharmaceuticals Inc., priority 2011, dated 2015).

What was measured:
[1] = biological target: T1, ERα (Homo sapiens, UniProt P03372); test: Competitive 3H-estradiol binding assay, ERα; conditions: 1 nM 3H-estradiol, HEK293T cytosolic extract; read-out: Binding ERα pKi (converted)
T1 sequence (P03372 1-595): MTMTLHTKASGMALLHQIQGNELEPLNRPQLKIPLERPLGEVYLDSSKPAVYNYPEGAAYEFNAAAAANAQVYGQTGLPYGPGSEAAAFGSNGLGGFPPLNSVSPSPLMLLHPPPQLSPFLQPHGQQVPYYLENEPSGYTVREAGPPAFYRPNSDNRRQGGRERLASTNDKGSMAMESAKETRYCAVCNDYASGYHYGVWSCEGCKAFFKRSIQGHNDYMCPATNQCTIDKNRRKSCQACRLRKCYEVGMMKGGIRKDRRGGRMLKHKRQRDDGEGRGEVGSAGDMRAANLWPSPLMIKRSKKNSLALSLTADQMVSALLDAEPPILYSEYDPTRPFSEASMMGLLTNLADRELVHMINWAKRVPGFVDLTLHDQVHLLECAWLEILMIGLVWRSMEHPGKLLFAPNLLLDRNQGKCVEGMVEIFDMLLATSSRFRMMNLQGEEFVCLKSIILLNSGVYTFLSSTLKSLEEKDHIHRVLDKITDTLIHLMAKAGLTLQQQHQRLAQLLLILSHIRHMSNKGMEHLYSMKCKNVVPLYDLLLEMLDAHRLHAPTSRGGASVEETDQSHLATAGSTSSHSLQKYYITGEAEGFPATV
Experimental: HEK293T cells were transiently transfected for 48 hours with expression vectors encoding ERα or ERβ, before being serum starved for 4-6 hours. Cells were then harvested by scraping in ice-cold PBS and subsequently lysed using a cold buffer containing 10 mM Tris pH 7.4, 1 mM EDTA, 1 mM DTT before being subjected to polytron twice for 10 seconds. Cytosolic extracts were isolated by centrifugation at 15000 g for 30 minutes at 4° C. Competitive binding of the test compounds or the estradiol control was performed on 20 μL extract by overnight incubation at 4° C. in a total volume of 100 μL containing 1 nM ^3H-estradiol (Perkin Elmer, Boston, Mass.). The bound fraction was separated from the unbound one by the addition of 100 μL of Dextran coated charcoal, incubated for 10 minutes and subsequent centrifugation at 1000 rpm for 10 minutes. Samples (100 μL per sample) were then analyzed by liquid scintillation. Data was then analyzed using the curve fitting software GraphPad Prism.

[2] = test system: nigrostriatal dopamine neurons; test: Tyrosine hydroxylase immunofluorescence in SN and STR after 6OHDA lesion; format: in vivo, Male rats; conditions: 6OHDA rats, once daily 7 days sc; 10 mg/kg (estradiol 100 μg/kg)
Experimental: Male rats received baseline assessment of weight, motor function (spontaneous locomotor behavior, rotorod performance) and sensorimotor gating (prepulse inhibition). Subjects were assigned to treatment conditions to equalize performance on all these measures. Subjects were then treated once daily for 7 days with either sesame oil vehicle, estradiol (100 μg/kg sc), Comparative substance 131 (10 mg/kg sc), Compound 8 (10 mg/kg sc), Comparative substance 623 (10 mg/kg sc) or Comparative substance 957 (10 mg/kg sc). On the second day of treatment, subjects received bilateral sham or 6OHDA lesions (8 μg in 4 μl) of the substantia nigra (A/P−5.0 mm, M/L±1.6 mm, D/V−8.2 mm) following the atlas of Paxinos and Watson (Paxinos, G., Watson, C., The Rat Brain in Stereotaxic Coordinates, Fourth Edition, New York: Academic Press, Spiral Bound, 1998). Behavioral assessments of motor function (spontaneous locomotion, rotorod and traversing a challenging beam), cognition (novel object recognition) and sensorimotor gating (prepulse inhibition) began after the final day of treatment. Following behavioral assessment, SN and striatal tissue were collected in order to determine the intactness of the nigrostriatal dopamine system.
Comparative compound 131 and Compound 8 were compared with estradiol for their ability to protect nigrostriatal dopamine neurons as measured by tyrosine hydroxylase (TH) immunohistochemistry in the SN and striatum (STR).

[3] = biological target: T2, ERβ (Homo sapiens, UniProt Q92731); test: R-SAT functional assay, ERβ; format: cell-based; parameters: expressed in transfected cells; host or cells: transient transfection; conditions: NIH3T3, read-out: R-SAT Erβ % Eff
Source text: R-SAT® (Receptor Selection and Amplification Technology) is a cell-based functional assay that allows one to monitor receptor-dependent proliferative responses and has been described elsewhere. […] This process is achieved by partial cellular transformation via loss of contact inhibition and growth factor dependency. Monitoring is achieved by transfecting the cells with a β-galactosidase reporter gene vector whose expression is under a constitutively active promoter. Briefly, NIH-3T3 fibroblasts were plated overnight in 96-wells plates in DMEM 10% calf serum (Hyclone) and grown to 60-70% confluency prior to transfection. Transient transfections were performed using Polyfect (Qiagen) according to manufacturer's instructions. Typically a transfection mix would consist of the receptor and the β-galactosidase expression vectors. Sixteen hours post-transfection, cells were incubated with different doses of ligand in DMEM containing 30% Ultraculture (Hyclone) and 0.4% calf serum (Hyclone) to generate a dose response curve. […] Plates were read using a microplate reader at 420 nm. Data from R-SAT® assays were fit to the equation: r=A+B(x/(x+c)), where A=minimum response, B=maximum response minus minimum response, c=EC50, r=response, and x=concentration of ligand. Curves were generated using the curve fitting softwares Excel Fit and GraphPad Prism (San Diego, Calif.). Luciferase Reporter Gene Assay

[4] = biological target: T1, ERα; test: Luciferase reporter gene assay (3*ERE) in HEK293 cells, ERα; format: cell-based; parameters: expressed in transfected cells; host or cells: transient transfection; conditions: 48 hours; for EC50: na = not active, read-out: Luciferase Erα pEC50 (converted)
Experimental: (§1) HEK293 cells were grown to 70% confluency in DMEM containing 10% calf serum (Hyclone) prior to transfection. On the day of transfection (day 1), expression vectors for ERα or ERβ were cotransfected along a construct containing a synthetic 3*ERE upstream of the luciferase gene (Panomics), using Polyfect (Qiagen) per manufacturer's recommendations (ERE being estrogen response element). Sixteen hours post-transfection, cells were incubated in serum free DMEM. […] Cells extracts were then obtained by lyzing and the Luciferase activity measured, all of these steps performed using a commercially available kit (Promega).

[5] = biological target: T2, ERβ; test: R-SAT functional assay, ERβ; format: cell-based; parameters: expressed in transfected cells; host or cells: transient transfection
[6] = biological target: T2, ERβ; test: Luciferase reporter gene assay (3*ERE) in HEK293 cells, ERβ; format: cell-based; parameters: expressed in transfected cells; host or cells: HEK293 cells, transient transfection; conditions: for Emax: HEK293, 48 h, read-out: Luciferase Erβ % Eff
Experimental: as §1

T2 sequence (Q92731 whole entry, species assumed): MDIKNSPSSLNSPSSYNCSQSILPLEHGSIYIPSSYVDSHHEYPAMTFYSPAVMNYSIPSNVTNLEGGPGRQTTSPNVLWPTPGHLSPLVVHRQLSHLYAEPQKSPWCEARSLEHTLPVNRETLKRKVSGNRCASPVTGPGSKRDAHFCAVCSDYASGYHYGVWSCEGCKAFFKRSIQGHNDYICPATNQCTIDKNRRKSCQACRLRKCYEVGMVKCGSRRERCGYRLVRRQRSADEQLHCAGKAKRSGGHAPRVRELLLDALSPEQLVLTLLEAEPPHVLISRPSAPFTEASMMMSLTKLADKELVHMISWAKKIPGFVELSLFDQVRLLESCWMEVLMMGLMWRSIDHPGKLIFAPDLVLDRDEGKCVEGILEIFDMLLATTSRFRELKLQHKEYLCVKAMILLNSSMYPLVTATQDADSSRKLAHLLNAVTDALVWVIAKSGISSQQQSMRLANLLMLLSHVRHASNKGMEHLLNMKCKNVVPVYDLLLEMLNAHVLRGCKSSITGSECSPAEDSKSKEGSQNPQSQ

Oc1ccc(C2(c3ccccc3F)CCC(F)(F)CC2)cc1 [Compound 8, 4-(4,4-Difluoro-1-(2-fluorophenyl)cyclohexyl)phenol]
Ki [1]: 79.4 nM
percent immunopositive and mean pixel intensity of TH immunofluorescence in the STR [2]: increase in percentage of the image that was immunopositive and increased mean pixel intensity
percent immunopositive, mean cell size and mean pixel intensity of TH immunofluorescence in the SN [2]: improved percent immunopositive, mean cell size and mean pixel intensity
tyrosine hydroxylase positive cell number in the SN [2]: prevented the reduction in cell number
Emax [3]: 69%
Luciferase Erα % Eff [4]: 32%
EC50 [4]: 631 nM
EC50 [5]: 1.26 nM
EC50 [6]: 0.631 nM
Emax [6]: 96%

Oc1ccc(C2(c3cccc(F)c3Cl)CCCCC2)cc1 [Compound 623]
Ki [1]: 794 nM
percent immunopositive, mean cell size and mean pixel intensity of TH immunofluorescence in the SN [2]: improved percent immunopositive, mean cell size and mean pixel intensity
tyrosine hydroxylase positive cell number in the SN [2]: prevented the reduction in cell number
Emax [3]: 89%
Luciferase Erα % Eff [4]: 15%
EC50 [4]: 398 nM
EC50 [5]: 6.31 nM
EC50 [6]: 5.01 nM
Emax [6]: 99%

Oc1ccc(C2(c3ccccc3Cl)CCCCC2)cc1F [Compound 957]
Ki [1]: 200 nM
percent immunopositive, mean cell size and mean pixel intensity of TH immunofluorescence in the SN [2]: improved percent immunopositive, mean cell size and mean pixel intensity
tyrosine hydroxylase positive cell number in the SN [2]: prevented the reduction in cell number
Emax [3]: 94%
Luciferase Erα % Eff [4]: 13%
EC50 [5]: 1.58 nM
EC50 [6]: 1.26 nM
Emax [6]: 62%
